Type in all cases: cell-based
Assay [1] deals with human EGFR E746-A750 deletion and T790M Mutation (DT) (Homo sapiens (Human), UniProt P00533, DEL746-750/T790M). The assay is described as follows: Ba/F3-EGFR-Del/T790M cell anti-proliferative assay (CellTiter 96 MTS, 72 h). The following applies: Ba/F3-EGFR-Del/T790M cells; for IC50: read-out: EGFR exon 19 deletion and T790M mutation IC50.
Experimental: An expression vector, pLVX-IRES puro (Clontech) coding for human EGFR E746-A750 deletion and T790M Mutation, was transfected into HEK293 cells by the Trans-Lentiviral ORF Packaging System (Thermo Scientific), to produce virus encoding EGFR exon 19 deletion and T790M mutations. […] Ba/F3 cells expressing EGFR E746-A750 deletion and T790M Mutation (named Ba/F3-EGFR-Del/T790M) can proliferate in the absence of IL-3. The anti-proliferative activity of compounds was determined as follows: BaF3-EGFR-Del/T790M cells seeded in 96 well plates (2500 cells/well) were treated with test compound (dissolved in DMSO) at a series of concentrations (4-fold dilution, top concentration: 10,000 nM). The plates were incubated for 72 h in a 37° C. incubator with 5% CO2, and the number of viable cells in each well were measured indirectly by CellTiter 96® Aqueous One Solution Cell Proliferation Assay (Promega; this assay is a colorimetric method for determining the number of viable cells through measurement of their metabolic activity by detection of enzymatic conversion of tetrazolium salts into blue formazan derivatives). Reagent (20 μL) was added into each well, and the plates were returned to the incubator for 2 h. The absorbance in each well was then measured at 490 nm using an Envision plate reader (Perkin Elmer).
Assay [2] addresses human EGFR L858R and T790M double mutation (LT) (Homo sapiens (Human), UniProt P00533, L858R/T790M). Description: Ba/F3-EGFR L858R/T790M cell anti-proliferative assay (CellTiter 96 MTS, 72 h).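 On all read-outs here: Ba/F3 cells carrying the EGFR L858R/T790M double mutant are able to grow without IL-3.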 The following applies: Ba/F3-EGFR L858R/T790M cells; for IC50: read-out: EGFR exon 21 L858R and T790M mutation IC50.
Experimental: An expression vector, pLVX-IRES puro (Clontech) coding for human EGFR L858R and T790M double mutation, was transfected into HEK293 cells by the Trans-Lentiviral ORF Packaging System (Thermo Scientific), to produce virus encoding EGFR L858R and T790M double mutations. […] Ba/F3 cells expressing EGFR L858R and T790M double mutation (named Ba/F3-EGFR L858R/T790M) can proliferate in the absence of IL-3. The anti-proliferative activity of compounds was determined as follows: BaF3-EGFR L858R/T790M cells seeded in 96 well plates (2500 cells/well) were treated with test compound (dissolved in DMSO) at a series of concentrations (4-fold dilution, top concentration: 10,000 nM). The plates were incubated for 72 h in a 37° C. incubator with 5% CO2, and the number of viable cells in each well were measured indirectly by CellTiter 96® Aqueous One Solution Cell Proliferation Assay (Promega; this assay is a colorimetric method for determining the number of viable cells through measurement of their metabolic activity by detection of enzymatic conversion of tetrazolium salts into blue formazan derivatives). Reagent (20 μL) was added into each well, and the plates were returned to the incubator for 2 h. The absorbance in each well was then measured at 490 nm using an Envision plate reader (Perkin Elmer).
Assay [3] has as its target Her2 exon 20 YVMA insertion (A775_G776ins YVMA) (Homo sapiens (Human), UniProt P04626, INS775YVMA). The assay is described as follows: Ba/F3-Her2 Exon20 YVMA cell anti-proliferative assay (CellTiter 96 MTS, 72 h). The conditions noted are these: Ba/F3-Her2 Exon20 YVMA cells. The source says: Ba/F3 cells expressing Her2 Exon20 YVMA insertions (named Ba/F3-Her2 Exon20 YVMA) can proliferate in the absence of IL-3.

In assay [4] the target is human EGFR exon 20 insertion ASV (V769_D770insASV) (Homo sapiens (Human), UniProt P00533, INS769ASV). The assay is described as follows: Ba/F3-EGFR-Exon20-ASV cell anti-proliferative assay (CellTiter 96 MTS, 72 h).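 Further: Ba/F3 cells bearing the EGFR exon 20 ASV insertion, a line able to proliferate without IL-3.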 The conditions noted are these: Ba/F3-EGFR-Exon20-ASV cells.
Experimental: Ba/F3 cells expressing EGFR exon 20 insertions (named Ba/F3-EGFR-Exon20-NPG or Ba/F3-EGFR-Exon20-ASV) can proliferate in the absence of IL-3. The anti-proliferative activity of compounds were determined as follows: BaF3-EGFR-Exon20 cells (NPG or ASV) seeded in 96 well plates (2500 cells/well) were treated with test compound (dissolved in DMSO) at a series of concentrations (4-fold dilution, top concentration: 10,000 nM). The plates were incubated for 72 h in a 37° C. incubator with 5% CO2, and the number of viable cells in each well were measured indirectly by CellTiter 96® Aqueous One Solution Cell Proliferation Assay (Promega) This assay is a colorimetric method for determining the number of viable cells through measurement of their metabolic activity by detection of enzymatic conversion of tetrazolium salts into blue formazan derivatives. Reagent (20 μL) was added into each well, and the plates were returned to the incubator for 2 h. The absorbance in each well was then measured at 490 nm using an Envision plate reader (Perkin Elmer).

The structures appear in SMILES notation.

These results are taken from patent US10227342B2 (ARIAD PHARMACEUTICALS, INC., priority 2014, dated 2019).

Sequence of human EGFR L858R and T790M double mutation (LT) (P00533 25-1210 T790M/L858R): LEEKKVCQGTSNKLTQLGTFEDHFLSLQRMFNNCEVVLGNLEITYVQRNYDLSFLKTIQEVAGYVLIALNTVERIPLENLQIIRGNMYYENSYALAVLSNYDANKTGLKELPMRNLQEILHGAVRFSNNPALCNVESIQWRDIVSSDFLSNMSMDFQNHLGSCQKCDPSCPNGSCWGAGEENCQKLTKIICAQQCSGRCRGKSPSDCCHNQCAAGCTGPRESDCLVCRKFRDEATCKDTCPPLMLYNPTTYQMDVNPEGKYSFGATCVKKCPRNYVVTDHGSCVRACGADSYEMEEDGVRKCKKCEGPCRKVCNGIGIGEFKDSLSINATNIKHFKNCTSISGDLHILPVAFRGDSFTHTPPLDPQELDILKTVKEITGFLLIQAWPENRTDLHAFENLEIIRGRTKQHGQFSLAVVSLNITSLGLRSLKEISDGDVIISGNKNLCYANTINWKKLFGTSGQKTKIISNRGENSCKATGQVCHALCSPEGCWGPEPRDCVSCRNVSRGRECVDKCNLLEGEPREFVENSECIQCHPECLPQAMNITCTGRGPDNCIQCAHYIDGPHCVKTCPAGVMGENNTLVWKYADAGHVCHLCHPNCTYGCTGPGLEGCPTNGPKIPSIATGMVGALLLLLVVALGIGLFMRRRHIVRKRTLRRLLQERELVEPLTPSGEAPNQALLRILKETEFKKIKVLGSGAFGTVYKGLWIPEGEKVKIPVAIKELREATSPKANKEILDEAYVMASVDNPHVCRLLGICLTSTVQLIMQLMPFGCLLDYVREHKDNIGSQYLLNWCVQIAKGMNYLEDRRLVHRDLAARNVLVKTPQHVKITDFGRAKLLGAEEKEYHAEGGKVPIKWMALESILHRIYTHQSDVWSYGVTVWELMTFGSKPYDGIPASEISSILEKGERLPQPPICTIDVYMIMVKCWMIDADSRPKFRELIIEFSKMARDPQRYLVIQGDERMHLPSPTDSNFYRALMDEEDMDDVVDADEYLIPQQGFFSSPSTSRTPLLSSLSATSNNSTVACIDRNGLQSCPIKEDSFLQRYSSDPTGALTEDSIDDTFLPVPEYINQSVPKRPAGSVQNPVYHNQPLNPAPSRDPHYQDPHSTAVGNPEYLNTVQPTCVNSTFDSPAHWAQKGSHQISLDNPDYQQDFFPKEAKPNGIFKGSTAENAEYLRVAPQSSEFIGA
Sequence of Her2 exon 20 YVMA insertion (A775_G776ins YVMA) (P04626 other isoform, or with tags, fused parts or gaps ins YVMA behind 775): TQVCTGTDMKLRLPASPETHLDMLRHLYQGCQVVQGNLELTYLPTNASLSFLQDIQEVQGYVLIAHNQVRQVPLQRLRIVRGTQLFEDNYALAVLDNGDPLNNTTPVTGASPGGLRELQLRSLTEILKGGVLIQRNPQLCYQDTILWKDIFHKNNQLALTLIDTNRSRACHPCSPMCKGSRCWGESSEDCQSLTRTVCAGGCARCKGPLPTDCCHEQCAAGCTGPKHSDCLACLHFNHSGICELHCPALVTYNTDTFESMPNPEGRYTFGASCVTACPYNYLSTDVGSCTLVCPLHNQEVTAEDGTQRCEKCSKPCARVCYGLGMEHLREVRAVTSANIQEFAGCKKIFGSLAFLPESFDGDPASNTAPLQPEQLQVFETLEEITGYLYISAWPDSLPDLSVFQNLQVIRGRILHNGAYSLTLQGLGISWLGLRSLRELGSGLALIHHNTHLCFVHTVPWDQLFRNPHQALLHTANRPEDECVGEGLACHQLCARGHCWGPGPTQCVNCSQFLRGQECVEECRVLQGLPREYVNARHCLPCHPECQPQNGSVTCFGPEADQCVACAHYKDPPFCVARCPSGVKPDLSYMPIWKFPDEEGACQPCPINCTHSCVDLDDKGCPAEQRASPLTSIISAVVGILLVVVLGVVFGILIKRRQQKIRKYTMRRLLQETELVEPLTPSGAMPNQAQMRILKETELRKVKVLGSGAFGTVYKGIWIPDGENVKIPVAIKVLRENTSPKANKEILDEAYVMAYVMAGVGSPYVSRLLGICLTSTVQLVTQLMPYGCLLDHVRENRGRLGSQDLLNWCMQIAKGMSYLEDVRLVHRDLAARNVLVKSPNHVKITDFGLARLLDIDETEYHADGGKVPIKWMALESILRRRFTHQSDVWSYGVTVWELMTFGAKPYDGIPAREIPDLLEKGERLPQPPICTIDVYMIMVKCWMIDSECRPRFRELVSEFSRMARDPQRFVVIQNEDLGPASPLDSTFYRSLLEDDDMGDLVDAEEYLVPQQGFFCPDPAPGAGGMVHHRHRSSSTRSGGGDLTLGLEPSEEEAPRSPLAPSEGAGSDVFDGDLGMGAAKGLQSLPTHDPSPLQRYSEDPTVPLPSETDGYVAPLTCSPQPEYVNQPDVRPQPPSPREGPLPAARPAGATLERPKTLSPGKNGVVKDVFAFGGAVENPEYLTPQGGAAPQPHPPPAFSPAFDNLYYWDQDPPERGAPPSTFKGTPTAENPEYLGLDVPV
Sequence of human EGFR E746-A750 deletion and T790M Mutation (DT) (P00533 other isoform, or with tags, fused parts or gaps T790M/del E746-A750): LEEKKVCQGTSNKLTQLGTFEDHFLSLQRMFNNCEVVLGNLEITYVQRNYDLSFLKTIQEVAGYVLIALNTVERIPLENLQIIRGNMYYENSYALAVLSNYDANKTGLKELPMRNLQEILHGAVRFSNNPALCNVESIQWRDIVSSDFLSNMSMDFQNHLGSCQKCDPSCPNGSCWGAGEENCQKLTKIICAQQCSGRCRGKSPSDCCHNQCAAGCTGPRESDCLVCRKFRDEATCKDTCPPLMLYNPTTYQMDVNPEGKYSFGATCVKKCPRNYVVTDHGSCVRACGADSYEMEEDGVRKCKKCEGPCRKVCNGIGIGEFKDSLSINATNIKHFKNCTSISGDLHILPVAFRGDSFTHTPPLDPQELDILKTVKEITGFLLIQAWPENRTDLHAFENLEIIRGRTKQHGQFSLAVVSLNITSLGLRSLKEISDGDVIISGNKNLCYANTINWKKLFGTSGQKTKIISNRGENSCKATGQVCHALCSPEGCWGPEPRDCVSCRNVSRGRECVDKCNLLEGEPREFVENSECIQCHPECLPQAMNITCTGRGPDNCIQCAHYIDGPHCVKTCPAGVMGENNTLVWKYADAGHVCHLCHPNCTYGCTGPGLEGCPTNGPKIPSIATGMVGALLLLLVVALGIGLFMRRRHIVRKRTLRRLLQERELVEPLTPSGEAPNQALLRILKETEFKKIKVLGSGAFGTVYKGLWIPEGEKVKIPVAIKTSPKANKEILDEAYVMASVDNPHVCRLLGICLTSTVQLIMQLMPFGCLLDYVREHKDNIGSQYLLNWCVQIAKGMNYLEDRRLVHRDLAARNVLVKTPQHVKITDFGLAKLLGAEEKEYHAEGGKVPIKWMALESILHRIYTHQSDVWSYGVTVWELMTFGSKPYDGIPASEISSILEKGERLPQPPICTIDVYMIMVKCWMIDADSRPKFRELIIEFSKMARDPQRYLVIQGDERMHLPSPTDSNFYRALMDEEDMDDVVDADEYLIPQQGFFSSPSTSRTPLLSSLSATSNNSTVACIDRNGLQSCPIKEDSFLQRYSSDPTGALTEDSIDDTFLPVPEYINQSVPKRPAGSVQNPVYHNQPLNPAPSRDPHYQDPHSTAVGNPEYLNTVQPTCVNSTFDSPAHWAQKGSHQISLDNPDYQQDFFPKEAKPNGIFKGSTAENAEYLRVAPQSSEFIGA
Sequence of human EGFR exon 20 insertion ASV (V769_D770insASV) (P00533 other isoform, or with tags, fused parts or gaps ins ASV behind 769): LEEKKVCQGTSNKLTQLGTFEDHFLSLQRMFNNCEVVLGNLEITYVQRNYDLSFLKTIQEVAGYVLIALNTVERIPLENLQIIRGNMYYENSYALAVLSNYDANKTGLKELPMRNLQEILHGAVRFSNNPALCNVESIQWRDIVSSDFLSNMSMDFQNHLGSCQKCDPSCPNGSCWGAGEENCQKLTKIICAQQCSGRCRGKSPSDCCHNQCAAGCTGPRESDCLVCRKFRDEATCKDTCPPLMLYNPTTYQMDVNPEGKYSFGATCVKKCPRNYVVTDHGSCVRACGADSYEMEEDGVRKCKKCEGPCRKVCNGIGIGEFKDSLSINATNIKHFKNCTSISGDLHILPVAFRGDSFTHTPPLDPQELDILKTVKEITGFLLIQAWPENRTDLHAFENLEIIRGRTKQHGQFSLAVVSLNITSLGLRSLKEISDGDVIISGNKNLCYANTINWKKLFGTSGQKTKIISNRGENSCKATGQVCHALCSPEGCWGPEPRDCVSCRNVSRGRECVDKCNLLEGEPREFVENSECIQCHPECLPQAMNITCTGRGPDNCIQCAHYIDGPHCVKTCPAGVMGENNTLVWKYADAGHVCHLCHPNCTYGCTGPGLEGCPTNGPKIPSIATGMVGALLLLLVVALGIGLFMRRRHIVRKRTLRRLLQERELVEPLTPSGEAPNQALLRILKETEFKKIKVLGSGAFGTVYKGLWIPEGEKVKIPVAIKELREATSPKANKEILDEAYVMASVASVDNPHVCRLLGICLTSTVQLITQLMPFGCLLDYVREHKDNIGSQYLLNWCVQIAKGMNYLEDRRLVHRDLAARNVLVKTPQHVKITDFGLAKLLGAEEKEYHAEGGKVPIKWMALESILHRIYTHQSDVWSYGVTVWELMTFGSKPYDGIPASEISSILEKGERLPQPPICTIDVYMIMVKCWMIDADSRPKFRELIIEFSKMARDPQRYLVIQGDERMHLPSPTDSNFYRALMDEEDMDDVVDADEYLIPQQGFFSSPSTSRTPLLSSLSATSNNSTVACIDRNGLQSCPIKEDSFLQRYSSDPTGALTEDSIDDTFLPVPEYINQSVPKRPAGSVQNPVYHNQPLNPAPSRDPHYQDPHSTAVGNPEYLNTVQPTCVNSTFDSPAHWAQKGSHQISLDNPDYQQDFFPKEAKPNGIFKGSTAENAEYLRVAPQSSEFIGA

With `C=CC(=O)Nc1cc(Nc2nccc(-c3c(C#N)n(C)c4ccccc34)n2)c(OC)cc1N(C)CCN(C)C` [Example 88, N-(5-((4-(2-cyano-1-methyl-1H-indol-3-yl)pyrimidin-2-yl)amino)-2-((2-(dimethylamino)ethyl)(methyl)amino)-4-methoxyphenyl)acrylamide], the IC50 in assay [1] was under 100 nM; in assay [2], under 100 nM; in assay [3] it was 100 to 500 nM; in assay [4], under 100 nM.
Take `C=CC(=O)Nc1cc(Nc2ncc(NC(=O)NC)c(-c3cn(C)c4ccccc34)n2)c(OC)cc1N(C)CCN(C)C` [Example 99, N-(2-((2-(dimethylamino)ethyl)(methyl)amino)-4-methoxy-5-((4-(1-methyl-1H-indol-3-yl)-5-(3-methylureido)pyrimidin-2-yl)amino)phenyl)acrylamide]: the IC50 is over 1000 nM in assay [1], over 1000 nM in assay [2], over 1000 nM in assay [3] and 500 to 1000 nM in assay [4].
For the compound `C=CC(=O)Nc1cc(Nc2nccc(-c3cn(C)c4c(C(=O)OC(C)C)cccc34)n2)c(OC)cc1N(C)CCN(C)C` [Example 85, isopropyl 3-(2-((5-acrylamido-4-((2-(dimethylamino)ethyl)(methyl)amino)-2-methoxyphenyl)amino)pyrimidin-4-yl)-1-methyl-1H-indole-7-carboxylate], the IC50 in assay [1] was under 100 nM; in assay [2], under 100 nM; in assay [3] it was 100 to 500 nM; in assay [4], 100 to 500 nM.
Consider `C=CC(=O)Nc1cc(Nc2nccc(-c3c(C(=O)OC)n(C)c4ccccc34)n2)c(OC)cc1N(C)CCN(C)C` [Example 86, methyl 3-(2-((5-acrylamido-4-((2-(dimethylamino)ethyl)(methyl)amino)-2-methoxyphenyl)amino)pyrimidin-4-yl)-1-methyl-1H-indole-2-carboxylate], for which the 50% inhibitory concentration (IC50) is under 100 nM in assay [1], under 100 nM in assay [2], 500 to 1000 nM in assay [3] and under 100 nM in assay [4].
Consider `C=CC(=O)Nc1cc(Nc2ncc(CC)c(-c3cn(CC(=O)NC)c4ccccc34)n2)c(OC)cc1N(C)CCN(C)C` [Example 72, N-(2-((2-(dimethylamino)ethyl)(methyl)amino)-5-((5-ethyl-4-(1-(2-(methylamino)-2-oxoethyl)-1H-indol-3-yl)pyrimidin-2-yl)amino)-4-methoxyphenyl)acrylamide], for which the IC50 in assay [1] is under 100 nM; in assay [2] it was under 100 nM; in assay [3], 100 to 500 nM; in assay [4], under 100 nM.
Consider `C=CC(=O)Nc1cc(Nc2nccc(-c3cn(C)c4cc(C#N)ccc34)n2)c(OC)cc1N(C)CCN(C)C` [Example 89, N-(5-((4-(6-cyano-1-methyl-1H-indol-3-yl)pyrimidin-2-yl)amino)-2-((2-(dimethylamino)ethyl)(methyl)amino)-4-methoxyphenyl)acrylamide], for which the IC50 is under 100 nM in assay [1], under 100 nM in assay [2], 100 to 500 nM in assay [3] and under 100 nM in assay [4].
Consider `C=CC(=O)Nc1cc(Nc2ncc(P(C)(C)=O)c(-c3cn(C)c4ccccc34)n2)c(OC)cc1N(C)CCN(C)C` [Example 96, N-(2-((2-(dimethylamino)ethyl)(methyl)amino)-5-((5-(dimethylphosphoryl)-4-(1-methyl-1H-indol-3-yl)pyrimidin-2-yl)amino)-4-methoxyphenyl)acrylamide], for which the “EGFR exon 19 deletion and T790M mutation IC50” value in assay [1] is “B (Group B compounds have an IC50 value for the indicated mutant between about 100 to about 500 nM)”. For the same compound, the “EGFR exon 21 L858R and T790M mutation IC50” value in assay [2] is given as “B (Group B compounds have an IC50 value for the indicated mutant between about 100 to about 500 nM)”. Further, the 50% inhibitory concentration (IC50) in assay [3] and in assay [4] was over 1000 nM in each case.

Usually IC50 stands for the concentration needed to halve the response being measured.
